Test systems include SK-MEL-2 melanoma; NCI-H460 lung; UO-31 renal; TK-10 renal; SF-268 CNS; COLO 205 colon; MDA-MB-435; NCI/ADR-RES ovarian; SN12C renal; EKVX NSCLC; SF-295 CNS; SK-OV-3 ovarian; OVCAR-4 ovarian; A549 NSCLC; IGROV1 ovarian; 786-0 renal; RPMI-8226 leukemia; HCT-116 colon; A498 renal; MDA-MB-231 breast.
Holding throughout (test): inhibition of tumour cell growth, NCI panel, 48 h

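Cultured in 96-well plates, cells were exposed to test compound for 48 hours across five concentrations. At the TGI there is no net growth.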

On to `O=C(NCP(=O)(Oc1ccccc1)Oc1ccccc1)OCc1ccccc1`, for which the TGI in the assay with SK-MEL-2 melanoma, in the assay on NCI-H460 lung, in the assay with UO-31 renal, in the assay with TK-10 renal, in the assay on SF-268 CNS and with COLO 205 colon was over 100 µM each time. Besides, the TGI in the assay with MDA-MB-435, in the assay with NCI/ADR-RES ovarian, in the assay with SN12C renal, in the assay with EKVX NSCLC, in the assay on SF-295 CNS and with SK-OV-3 ovarian was over 100 µM throughout. For the same compound, the TGI in the assay on OVCAR-4 ovarian, in the assay on A549 NSCLC, in the assay on IGROV1 ovarian, in the assay with 786-0 renal and with RPMI-8226 leukemia was over 100 µM each time.

Regarding `COc1cc(OC)cc(C(=O)CC(=O)c2cc(OC)cc(OC)c2)c1`, the TGI with NCI-H460 lung, with UO-31 renal, with TK-10 renal, in the assay on SF-268 CNS, with HCT-116 colon and in the assay with COLO 205 colon was over 100 µM each time. Further, the TGI with MDA-MB-435, with NCI/ADR-RES ovarian, with SN12C renal, with EKVX NSCLC, in the assay with SF-295 CNS and with SK-OV-3 ovarian was over 100 µM throughout. Also, the TGI in the assay on A498 renal, in the assay on A549 NSCLC, in the assay with IGROV1 ovarian, with 786-0 renal and in the assay on RPMI-8226 leukemia was over 100 µM in each case.

Turning to `COc1cc(O)c2c(c1)C(=O)c1cc3c(c(O)c1C2=O)C(OC1OC(C)C(OC)C(O)C1OC)C(OC)C(C)(O)C3=O` (stereo not given), the TGI in the assay on SK-MEL-2 melanoma stood at 23.5 µM; with NCI-H460 lung it was 10.8 µM; in the assay on MDA-MB-231 breast it was 27.3 µM; in the assay with TK-10 renal, 23.7 µM; in the assay on SF-268 CNS it was 36.3 µM; in the assay with HCT-116 colon it was 14.6 µM. Moreover, the TGI was 13.3 µM with COLO 205 colon; 16.1 µM with MDA-MB-435; 14.5 µM with EKVX NSCLC; 18.3 µM in the assay on SF-295 CNS; 97 µM in the assay on SK-OV-3 ovarian; 21.7 µM in the assay on A498 renal. Also, the TGI with OVCAR-4 ovarian came to 15.5 µM; with A549 NSCLC, 16.1 µM; in the assay on IGROV1 ovarian, 6.5 µM; in the assay on 786-0 renal it was 45.5 µM; in the assay with RPMI-8226 leukemia, 4.6 µM.

As to `S=c1c2cn[nH]c2nc2scc(-c3ccc(Cl)cc3)n12`, the TGI is 46.6 µM in the assay with SK-MEL-2 melanoma; 57.5 µM in the assay on NCI-H460 lung; over 100 µM with MDA-MB-231 breast; 41.8 µM in the assay with UO-31 renal; 31.8 µM in the assay on TK-10 renal; 42.5 µM with SF-268 CNS. For the same compound, the TGI in the assay on HCT-116 colon is 27.9 µM; with COLO 205 colon, 65.3 µM; in the assay on MDA-MB-435, 15.7 µM; in the assay with NCI/ADR-RES ovarian it was 31.2 µM; in the assay on SN12C renal, 32 µM; in the assay with EKVX NSCLC, 49.1 µM. Further, the TGI in the assay on SK-OV-3 ovarian was over 100 µM; in the assay with OVCAR-4 ovarian, over 100 µM; in the assay with A549 NSCLC it was 30.5 µM; in the assay on 786-0 renal, 29.4 µM; with RPMI-8226 leukemia, 64.9 µM.

Turning to `NS(=O)(=O)c1ccc(NC(=S)/N=C/C2=C(O)c3ccccc3C2=O)cc1`, the TGI with SK-MEL-2 melanoma was over 100 µM; in the assay with NCI-H460 lung, over 100 µM; with MDA-MB-231 breast, over 100 µM; in the assay on UO-31 renal, 85.6 µM; in the assay on TK-10 renal it was over 100 µM; with SF-268 CNS, over 100 µM. Further, the TGI in the assay with HCT-116 colon, in the assay with COLO 205 colon, in the assay on MDA-MB-435, in the assay with SN12C renal, in the assay with EKVX NSCLC and in the assay on SF-295 CNS was over 100 µM throughout. Besides, the TGI in the assay with SK-OV-3 ovarian, in the assay on A498 renal, in the assay on OVCAR-4 ovarian, in the assay with A549 NSCLC, with IGROV1 ovarian and in the assay with 786-0 renal was over 100 µM throughout. The compound further came in with a TGI with RPMI-8226 leukemia of over 100 µM.

Consider `N#CNC(=NCc1ccccc1)N(Cc1ccccc1)Cc1ccccc1`, for which the TGI in the assay on SK-MEL-2 melanoma is 26.4 µM; in the assay on NCI-H460 lung, over 31.6 µM; with MDA-MB-231 breast it was 85.3 µM; with UO-31 renal it was 29.3 µM; in the assay with TK-10 renal, over 31.6 µM; in the assay on SF-268 CNS, over 31.6 µM. Besides, the TGI is over 31.6 µM with HCT-116 colon; over 100 µM in the assay with MDA-MB-435; over 100 µM with NCI/ADR-RES ovarian; over 31.6 µM in the assay on SN12C renal; 29 µM with SF-295 CNS; over 31.6 µM in the assay with OVCAR-4 ovarian. For the same compound, the TGI in the assay on A549 NSCLC, with IGROV1 ovarian, with 786-0 renal and in the assay with RPMI-8226 leukemia was over 31.6 µM in each case.

With `O=C(O)[C@H]1CCCN1CP(=O)(O)CN1CCC[C@@H]1C(=O)O`, the TGI with SK-MEL-2 melanoma, in the assay with NCI-H460 lung, in the assay with MDA-MB-231 breast, with UO-31 renal, in the assay with SF-268 CNS and in the assay on HCT-116 colon was over 100 µM in each case. For the same compound, the TGI in the assay on COLO 205 colon, with MDA-MB-435, in the assay on NCI/ADR-RES ovarian, with SN12C renal, with EKVX NSCLC and in the assay with SF-295 CNS was over 100 µM in each case. Besides, the TGI with SK-OV-3 ovarian, in the assay with OVCAR-4 ovarian, with A549 NSCLC, in the assay on IGROV1 ovarian and in the assay on 786-0 renal was over 100 µM each time.

For the origin of these results see PubChem BioAssay (NCI).
